In US9510598B2, “Nitrogen-containing heterocyclic compounds for plant disease control” (BAYER CROPSCIENCE AG, priority 2012, dated 2016):
Where two headings read alike, the source gives them in different places.

Tests used:
[1] = type: physicochemical
[2] = tested on: Puccinia recondita; test: In vivo preventive test on Puccinia recondita (brown rust on wheat); settings: 500 ppm; wheat plants sprayed 24 hours before contamination; grading 10 days after contamination vs control plants
Procedure: Wheat plants (“Scipion” variety), sown in starter cups on a 50/50 peat soil-pozzolana substrate and grown at 22° C. (12 h)/20° C. (12 h), are treated at the 1-leaf stage (10 cm height) by spraying with the active ingredient prepared as described above. Plants, used as controls, are treated with the mixture of acetone/tween/DMSO/water not containing the active material. After 24 hours, the plants are contaminated by spraying the leaves with an aqueous suspension of Puccinia recondita spores (100 000 spores per ml).

[3] = tested on: Botrytis cinerea; test: In vivo preventive test on Botrytis cinerea (grey mould); settings: 500 ppm; gherkin plants sprayed 24 hours before contamination; grading 4-5 days after contamination vs control plants
Method in brief: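 Gherkin plants ("Vert petit de Paris") sprayed with compound at Z11 cotyledon stage, then inoculated 24 h later with B. cinerea spores (50 000/ml) in PDB/fructose/NH4NO3/KH2PO4 nutrient solution. Incubated at 17 °C, 80% RH; % efficacy versus solvent-treated controls graded 4–5 days after contamination.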

[4] = tested on: Septoria tritici; test: In vivo preventive test on Septoria tritici (leaf spot on wheat); settings: 500 ppm; wheat plants sprayed 24 hours before contamination; grading 21 to 28 days after contamination vs control plants
Method in brief: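 Scipion wheat at 1-leaf stage sprayed with compound, controls receiving acetone/tween/DMSO/water vehicle; 24 h later leaves inoculated with Septoria tritici spores (500 000 spores per ml). Efficacy (%) graded versus control plants 21 to 28 days after contamination.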

[5] = tested on: Sphaerotheca fuliginea; test: In vivo preventive test on Sphaerotheca fuliginea (powdery mildew on cucurbits); settings: 500 ppm; gherkin plants sprayed 24 hours before contamination; grading 12 days after contamination vs control plants
Method in brief: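 Preventive spray of gherkin plants at Z11 cotyledon stage, grown at 24° C; inoculation 24 hours later with Sphaerotheca fuliginea spores (100 000 spores per ml). Efficacy graded 12 days post-inoculation as % versus solvent-treated control plants.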

[6] = tested on: Phytophthora infestans; type: in vivo; settings: 500 ppm; tomato plants sprayed 24 hours before contamination; grading 5 days after contamination vs control plants
[7] = tested on: Alternaria brassicae; test: In vivo preventive test on Alternaria brassicae (leaf spot on radish); settings: 500 ppm; radish plants sprayed 24 hours before contamination; grading 5 days after contamination vs control plants
Procedure: Radish plants (“Pernod Clair” variety), sown in starter cups on a 50/50 peat soil-pozzolana substrate and grown at 17° C., are treated at the 2-leaf stage by spraying with the active ingredient prepared as described above. Plants, used as controls, are treated with the mixture of acetone/tween/DMSO/water not containing the active material. After 24 hours, the plants are contaminated by spraying the leaves with an aqueous suspension of Alternaria brassicae spores (50 000 spores per ml). The spores are collected from a 15-day-old culture. […] Grading (% of efficacy) is carried out 5 days after the contamination, in comparison with the control plants.

[8] = method [a]: HPLC/LC-MS on reversed phase at pH 2.7, 0.1% formic acid in water / acetonitrile, gradient 10% to 95% acetonitrile
[9] = HPLC on reversed phase columns, method [a]: pH 2.7, 0.1% formic acid in water / acetonitrile, linear gradient 10% to 95% acetonitrile
[10] = method [a]: HPLC/LC-MS on reversed phase at pH 2.7, 0.1% formic acid in water / acetonitrile, linear gradient 10% to 95% acetonitrile

In the case of `CC1(C(N)=O)CC(c2ccc3ncc(Br)cc3c2)=NO1` (racemic) [compound 380], the “log P” value [1, 8] was 1.82[a] and the “% of efficacy (protection)” value [2] was 78%.

For `CCC#Cc1cnc2ccc(C3=NOC(C)(C(=O)NCc4cn(CC)nc4C)C3)cc2c1` (racemic) [compound 394], the “log P” value [1, 8] was 2.75[a] and the “% of efficacy (protection)” value [2] was 92%.

In the case of `C#Cc1cnc2ccc(C3=NOC(CC)(C(=O)NC(C)C)C3)cc2c1` (racemic) [compound 446], the “log P” value [1, 8] was 2.76[a], the “% of efficacy (protection)” value [3] was 98% and the “% of efficacy (protection)” value [2] was 83%. For the same compound, the “% of efficacy (protection)” value [4] was 100% and the “% of efficacy (protection)” value [5] was 94%.

In the case of `C#Cc1cnc2ccc(C3=NOC(C)(C(=S)NCc4cnn(C)c4)C3)cc2c1` (racemic) [compound 451], the “log P” value [1, 8] was 2.62[a], the “% of efficacy (protection)” value [2] was 89% and the “% of efficacy (protection)” value [4] was 94%.

With `CC1(C(=O)NC2CCC2)CC(c2ccc3ncc(I)cc3c2)=NO1` (racemic) [compound 454] the “log P” value [1, 8] was 3.06[a] and the “% of efficacy (protection)” value [2] was 94%.

In the case of `CCOCCCNC(=O)C1(C)CC(c2ccc3ncc(I)cc3c2)=NO1` (racemic) [compound 456], the “log P” value [1, 8] was 2.86[a], the “% of efficacy (protection)” value [3] was 98% and the “% of efficacy (protection)” value [2] was 83%. The “% of efficacy (protection)” value [4] was 100% and the “% of efficacy (protection)” value [5] was 98%.

For `C#Cc1cnc2ccc(C3=NOC(OC)(C(=O)N4CCCCO4)C3)cc2c1` (racemic) [compound 457], the “log P” value [1, 8] was 2.41[a], the “% of efficacy (protection)” value [2] was 83% and the “% of efficacy (protection)” value [4] was 88%.

In the case of `CCn1cc(CNC(=O)C2(C)CC(c3cc(Cl)c4ncc(Br)cc4c3)=NO2)c(C)n1` (racemic) [compound 548], the “log P” value [1, 9] was 2.77[a], the “% of efficacy (protection)” value [3] was 94% and the “% of efficacy (protection)” value [2] was 83%. The “% of efficacy (protection)” value [4] was 100% and the “% of efficacy (protection)” value [5] was 80%.

In the case of `C#Cc1cnc2ccc(C3=NOC(C)(C(=O)NCC4OCCc5ccccc54)C3)cc2c1` (single isomer, unassigned) [compound 262], the “log P” value [1, 9] was 3.13^[a], the “% of efficacy (protection)” value [3] was 95% and the “% of efficacy (protection)” value [2] was 81%.

With `CCCn1cc(CNC(=O)C2(OC)CC(c3ccc4ncc(Br)cc4c3)=NO2)c(C)n1` (stereo not drawn) [compound 50] the “% of efficacy (protection)” value [3] was 100%, the “% of efficacy (protection)” value [6] was 100% and the “% of efficacy (protection)” value [2] was 88%. The “% of efficacy (protection)” value [4] was 100% and the “% of efficacy (protection)” value [5] was 100%.

In the case of `CC(C)NC(=O)C1(C)CC(c2ccc3ncc(S(C)(=O)=O)cc3c2)=NO1` (stereo not drawn) [compound 146], the “log P” value [1, 10] was 1.81^[a], the “% of efficacy (protection)” value [6] was 85% and the “% of efficacy (protection)” value [2] was 72%.

In the case of `C#Cc1cnc2ccc(C3=NOC(C)(C(=O)NCc4ncc(C(F)(F)F)cc4Cl)C3)cc2c1` (stereo not drawn) [compound 157], the “log P” value [1, 10] was 3.48^[a] and the “% of efficacy (protection)” value [2] was 72%.

In the case of `C#Cc1cnc2ccc(C3=NOC(C)(C(=O)NCc4cccs4)C3)cc2c1` (stereo not drawn) [compound 162], the “log P” value [1, 10] was 2.73^[a], the “% of efficacy (protection)” value [7] was 88% and the “% of efficacy (protection)” value [3] was 99%. The “% of efficacy (protection)” value [4] was 86% and the “% of efficacy (protection)” value [5] was 94%.

For `C#Cc1cnc2ccc(C3=NOC(C)(C(=O)NCc4cnn(C)c4C)C3)cc2c1` (stereo not drawn) [compound 178], the “log P” value [1, 10] was 1.93^[a], the “% of efficacy (protection)” value [7] was 75% and the “% of efficacy (protection)” value [3] was 100%. For the same compound, the “% of efficacy (protection)” value [4] was 100%.

In the case of `C#Cc1cnc2ccc(C3=NOC(C)(C(=O)NCc4cnn(C)c4)C3)cc2c1` (stereo not drawn) [compound 180], the “log P” value [1, 10] was 1.86^[a], the “% of efficacy (protection)” value [7] was 75% and the “% of efficacy (protection)” value [3] was 95%. The “% of efficacy (protection)” value [6] was 86%, the “% of efficacy (protection)” value [4] was 100% and the “% of efficacy (protection)” value [5] was 98%.

For `C#Cc1cnc2ccc(C3=NOC(C)(C(=O)NCC4CCOC4)C3)cc2c1` (stereo not drawn) [compound 214], the “log P” value [1, 10] was 1.98^[a], the “% of efficacy (protection)” value [7] was 75% and the “% of efficacy (protection)” value [3] was 100%. The “% of efficacy (protection)” value [4] was 100% and the “% of efficacy (protection)” value [5] was 78%.

For `CC1(C(=O)NC2CC2C2CC2)CC(c2ccc3ncc(Br)cc3c2)=NO1` (stereo not drawn) [compound 215], the “log P” value [1, 10] was 3.29^[a], the “% of efficacy (protection)” value [7] was 75% and the “% of efficacy (protection)” value [3] was 87%. The “% of efficacy (protection)” value [4] was 86%.

For `C#Cc1cnc2ccc(C3=NOC(C)(C(=O)NCc4ccc5ncccc5c4)C3)cc2c1` (stereo not drawn) [compound 227], the “log P” value [1, 10] was 1.59^[a], the “% of efficacy (protection)” value [7] was 75% and the “% of efficacy (protection)” value [3] was 92%. For the same compound, the “% of efficacy (protection)” value [4] was 93%.

For `CC1(C(=O)NC2CCC2)CC(c2ccc3ncc(Br)cc3c2)=NO1` (stereo not drawn) [compound 234], the “log P” value [1, 9] was 2.9^[a], the “% of efficacy (protection)” value [7] was 75% and the “% of efficacy (protection)” value [3] was 99%. The “% of efficacy (protection)” value [4] was 86% and the “% of efficacy (protection)” value [5] was 94%.

In the case of `C#Cc1cnc2ccc(C3=NOC(C)(C(=O)NCc4ccc5ccoc5c4)C3)cc2c1` (stereo not drawn) [compound 242], the “log P” value [1, 9] was 3^[a], the “% of efficacy (protection)” value [7] was 94% and the “% of efficacy (protection)” value [3] was 86%. For the same compound, the “% of efficacy (protection)” value [4] was 86%.

In the case of `CCn1cc(CNC(=O)C2(C)CC(c3ccc4ncc(C)cc4c3)=NO2)c(C)n1` (stereo not drawn) [compound 257], the “log P” value [1, 9] was 1.46^[a], the “% of efficacy (protection)” value [6] was 100% and the “% of efficacy (protection)” value [2] was 81%.

With `CCn1cc(CNC(=O)C2(c3ccccc3)CC(c3ccc4ncc(Br)cc4c3)=NO2)c(C)n1` (stereo not drawn) [compound 278] the “log P” value [1, 9] was 3.18[a], the “% of efficacy (protection)” value [7] was 86% and the “% of efficacy (protection)” value [5] was 100%.

In the case of `C#CC1(C(=O)NC(C)C)CC(c2ccc3ncc(Br)cc3c2)=NO1` (stereo not drawn) [compound 402], the “log P” value [1, 8] was 2.92[a], the “% of efficacy (protection)” value [7] was 71% and the “% of efficacy (protection)” value [3] was 99%. For the same compound, the “% of efficacy (protection)” value [4] was 100%.

In the case of `CCCn1cc(CNC(=O)C2(CC3CC3)CC(c3ccc4ncc(Br)cc4c3)=NO2)c(C)n1` (stereo not drawn) [compound 424], the “log P” value [1, 8] was 3.33[a] and the “% of efficacy (protection)” value [2] was 72%.

For `C#Cc1cnc2ccc(C3=NOC(OC)(C(=O)N(CC(F)F)C(C)C)C3)cc2c1` (stereo not drawn) [compound 469], the “log P” value [1, 8] was 3.60[a], the “% of efficacy (protection)” value [2] was 80% and the “% of efficacy (protection)” value [4] was 97%.

For `C#Cc1cnc2ccc(C3=NOC(OC)(C(=O)NC4CC4)C3)cc2c1` (stereo not drawn) [compound 504], the “log P” value [1, 8] was 2.08[a], the “% of efficacy (protection)” value [3] was 99% and the “% of efficacy (protection)” value [2] was 72%. The “% of efficacy (protection)” value [4] was 100% and the “% of efficacy (protection)” value [5] was 100%.

For `CSC1(C(=O)NC(C)C)CC(c2ccc3ncc(Br)cc3c2)=NO1` (stereo not drawn) [compound 530], the “log P” value [1, 9] was 2.88[a], the “% of efficacy (protection)” value [3] was 100% and the “% of efficacy (protection)” value [2] was 79%.

For `C#Cc1cnc2c(C)cc(C3=NOC(C)(C(=O)NCC4COC(C)(C)O4)C3)cc2c1` (stereo not drawn) [compound 536], the “log P” value [1, 9] was 2.98[a], the “% of efficacy (protection)” value [3] was 100% and the “% of efficacy (protection)” value [2] was 72%. For the same compound, the “% of efficacy (protection)” value [4] was 100% and the “% of efficacy (protection)” value [5] was 100%.

In the case of `CCCn1cc(CNC(=O)C2(OC)CC(c3cc(Cl)c4ncc(Br)cc4c3)=NO2)c(C)n1` (stereo not drawn) [compound 567], the “log P” value [1, 9] was 3.08[a], the “% of efficacy (protection)” value [3] was 100% and the “% of efficacy (protection)” value [2] was 75%. The “% of efficacy (protection)” value [4] was 100% and the “% of efficacy (protection)” value [5] was 100%.

With `C=CC1(C(=O)NCc2cn(CC)nc2C)CC(c2ccc3ncc(Br)cc3c2)=NO1` (stereo not drawn) [compound 599] the “log P” value [1, 9] was 2.61[a], the “% of efficacy (protection)” value [3] was 100% and the “% of efficacy (protection)” value [6] was 85%. For the same compound, the “% of efficacy (protection)” value [2] was 88%, the “% of efficacy (protection)” value [4] was 100% and the “% of efficacy (protection)” value [5] was 100%.

In the case of `CCn1cc(CNC(=O)C2(C(F)F)CC(c3ccc4ncc(I)cc4c3)=NO2)c(C)n1` (stereo not drawn) [compound 617], the “log P” value [1, 9] was 2.73[a], the “% of efficacy (protection)” value [3] was 95% and the “% of efficacy (protection)” value [2] was 71%. The “% of efficacy (protection)” value [5] was 100%.
